Patent US7128900B2, “Light-protection agents” (Merck Patent GmbH, priority 2002, dated 2006)
Where “and” joins values, the source holds several entries; their conditions need not be identical. Equal entries are not always repeated.

Experiment: UV absorption spectrum (UV-VIS) in 2-propanol
Format: physicochemical
Conditions: for UV absorption maximum λ / ε at the UV absorption maximum: in 2-propanol; for UV-vis λmax: several maxima listed
Protocol: The UV-VIS spectrum was measured on a Varian Cary 100 biospectrophotometer fitted with a heated cell holder (concentration=0.001 g/100 ml of 2-propanol; cell thickness d=1 cm; wavelength range: 200 to 800 nm).
The UV-VIS spectrum was measured on a Varian Cary 100 biospectrophotometer fitted with a heated cell holder (concentration=0.001 g/ 100 ml of 2-propanol; cell thickness d=1 cm; wavelength range: 200 to 800 nm).

SMILES	UV absorption maximum λ [nm]	ε at the UV absorption maximum	UV-vis λmax (2-propanol, 1 mg/100 ml)	other results
COc1ccc(-c2cc(=O)c3cc(O)ccc3o2)cc1 [Example 1, 4′-methoxy-6-hydroxyflavone]	322	24790		
O=c1cc(-c2ccc(O)cc2)oc2cc(O)ccc12 [Example 3, 4′,7-dihydroxyflavone]	329	27960		
COc1ccc(-c2cc(=O)c3ccc(OC4O[C@H](CO)[C@@H](O)[C@H](O)[C@H]4O)cc3o2)cc1 (stereo partly drawn) [Example 4, 4′-methoxy-7-β-glucosidylflavone]	318	37185		
COc1cc(-c2cc(=O)c3cc(O)c(O)cc3o2)cc(OC)c1OC [Example 5, 2-(3′,4′,5′-trimethoxyphenyl)-6,7-dihydroxy-4-oxo-4H-1-benzopyran]			281 nm and 324 nm	UV-vis (e) at λmax 281 nm (2-propanol, 1 mg/100 ml, 281 nm): 8267; UV-vis (e) at λmax 324 nm (2-propanol, 1 mg/100 ml, 324 nm): 16036
O=c1cc(-c2ccc(O)cc2)oc2ccc(O)cc12 [Example 6, 2-(4′-hydroxyphenyl)-6-hydroxy-4-oxo-4H-1-benzopyran]			228 nm and 277 nm and 328 nm	UV-vis (e) at λmax 228 nm (2-propanol, 1 mg/100 ml, 228 nm): 23068; UV-vis (e) at λmax 277 nm (2-propanol, 1 mg/100 ml, 277 nm): 14805; UV-vis (e) at λmax 328 nm (2-propanol, 1 mg/100 ml, 328 nm): 30971
